Assay [1] has as its system nitrotyrosine protein. As to the kind of experiment: nitrotyrosine protein in kidney tissues (Western blot), renal ischemia and reperfusion. The assay is classed as in vivo, mouse. The following applies: L-tyrosine 100 mg/kg oral for 4 days, 24 hours after ischemia and reperfusion. As for the experimental part:
C57BL/6 male mouse (23 to 25 g, KOATECH, South Korea) was allowed to have free access to diets and water in sterile breeding room with constant temperature and humidity. The animals were divided into 3 test groups, i.e., 1) Control group (Sham), 2) Renal ischemia having treatment with prepared solvent and induced reperfusion group (CMC+IR), and 3) Renal ischemia having treatment with L-tyrosine and induced reperfusion group (L-Tyr+IR).
L-Tyrosine (100 mg/kg) was suspended in 0.5% CMC (carboxymethyl cellulose). The animal was orally administered, once a day for 4 days, with L-tyrosine or the prepared solvent CMC. Thirty minutes after the oral administration on Day 4, renal ischemia was caused. Specifically, the animal abdomen was cut and renal pedicles at both sides were clamped using a Muller atraumatic vascular clamp to cause renal ischemia. After 25 minutes of blood ischemia, the clamp was removed followed by reperfusion. The control group (Sham) received the same operational procedures as above except the ischemia using clamp. Twenty-four hours after the reperfusion, the test animal was sacrificed, blood was collected from the heart, and the tissues were harvested.
Kidney tissues were homogenized with RIPA buffer solution. After centrifuge for 15 minutes at 16,000×g, 4° C., supernatant was collected and the protein quantification was carried out by BCA method. […]

Assay [2] deals with acute renal failure caused by kidney ischemia or reperfusion injury. As to the kind of experiment: plasma creatinine (Jaffe method), renal ischemia and reperfusion. The following applies: L-tyrosine 100 mg/kg oral for 4 days, 24 hours after ischemia and reperfusion. The assay is classed as in vivo, mouse. As for the experimental part: C57BL/6 male mouse (23 to 25 g, KOATECH, South Korea) was allowed to have free access to diets and water in sterile breeding room with constant temperature and humidity. The animals were divided into 3 test groups, i.e., 1) Control group (Sham), 2) Renal ischemia having treatment with prepared solvent and induced reperfusion group (CMC+IR), and 3) Renal ischemia having treatment with L-tyrosine and induced reperfusion group (L-Tyr+IR). L-Tyrosine (100 mg/kg) was suspended in 0.5% CMC (carboxymethyl cellulose). The animal was orally administered, once a day for 4 days, with L-tyrosine or the prepared solvent CMC. Thirty minutes after the oral administration on Day 4, renal ischemia was caused. Specifically, the animal abdomen was cut and renal pedicles at both sides were clamped using a Muller atraumatic vascular clamp to cause renal ischemia. […] Blood collected in the above was centrifuged for 15 minutes at 3,000 rpm to separate plasma, and blood creatinine was measured by using Jaffe method. With regard to Jaffe method, based on a difference between the absorbance measured at a wavelength of 510 nm after the reaction of plasma sample with picric acid and the absorbance measured after completing the reaction using 60% acetic acid, the amount of creatinine was calculated and it was expressed in unit of mg/dl.

In assay [3] the test system is chronic immobilization stress group (STR). As to the kind of experiment: amount of glutamate, glutamine, tyrosine and GABA in PFC by LC-MS/MS. The format is in vivo, mouse. The following applies: stress group fed tyrosine diet, vs normal group. From the text: The Amount of amino acids (glutamate, glutamine, tyrosine) and GABA in the PFC was quantified by liquid chromatography analysis (LC-MS/MS). PFC tissues were lysed first, and the tissue supernatant was collected and diluted with internal reference (L-Glu-d5) and mobile phase. The diluted sample was divided into 5 samples and injected to LC-MS/MS system (Agilent 6460). As for the column, SeQuant ZIC®-HILIC column (2.1×100 mm, 3.5 μm, 100 Å) was used, and, as a mobile phase, acetonitrile containing 0.1% formic acid was used, and the separation was made by using concentration gradient. For detecting the amino acids, multiple reaction monitoring and detection method was employed (m/z of Glu: 148→84, m/z of Gln: 147→84, m/z of GABA: 104→87, and m/z of internal reference: 153→88).

Assay [4] has the same test system. As to the kind of experiment: ammonia amount in PFC (Ammonia assay kit). The following applies: stress group fed tyrosine-diet. The assay is classed as in vivo, mouse. The protocol:
PFC tissues were weighed at a temperature of not more than −20° C. to prevent them from melting. To a 1.5 ml tube, RIPA (proteinase inhibitor cocktail, containing PIC) in an amount of 100 μl per 10 mg of the tissues and suitable number of glass beads were added, and then the tissues were lysed twice for 30 seconds by using a bullet blender. Lysed tissues were spun down, transferred to a fresh 1.5 ml tube, and then subjected to tissue homogenization for 1 min by ultrasonication. After centrifuged for 15 minutes at 12,000 rpm, supernatant was transferred to a fresh 1.5 ml tube and kept at −80° C. until use. […]
To 100 μl of the ammonia assay reagent provided in the Ammonia assay kit, 10 μl of the sample diluted by a factor 2 using PBS buffer solution (i.e., corresponding to 5 μg tissues) were added and incubated for 5 minutes at room temperature. […] After 5 minutes, absorbance was measured at 340 nm by using a microreader (Ainitial).
After adding 10 μl of glutamate dehydrogenase solution and incubation for 5 minutes at room temperature, absorbance was measured at 340 nm by using a microreader (Afinal).
DA340 nm (Afinal-Ainitial) was then calculated, and DA340 nm of the blank control or DA340 nm of buffer solution blank control was excluded by subtraction for the reference and sample, respectively. […]

Assay [5] deals with mouse PFC protein. Put plainly: inhibitory effect on in vitro nitration of mouse PFC protein induced by ONOO−. The assay is classed as biochemical. The following applies: mouse PFC protein treated with ONOO−. From the text:
By treating mouse PFC protein with ONOO^−, protein nitration was induced and the inhibitory effect on nitration by tyrosine was examined.

`N[C@@H](Cc1ccc(O)cc1)C(=O)O` [L-tyrosine]: the “amount of nitrotyrosine protein in kidney tissues” value in assay [1] is “significantly reduced”. Moreover, in assay [2], the creatinine in plasma result was “suppressed”.

Consider `N[C@@H](Cc1ccc(O)cc1)C(=O)O` [tyrosine], for which, in assay [3], the “amount of GABA in PFC” value is reported as “higher than the amount level of the normal group”, the “amount of glutamate in PFC” value was “higher than the amount level of the normal group”, the “amount of glutamine in PFC” value is recorded as “higher than the amount level of the normal group” and the “amount of tyrosine in PFC” value was “higher than the amount level of the normal group”. For the same compound, in assay [4], the “ammonia amount in PFC” value is given as “reduced to a similar level to the normal group”. The “inhibitory effect on nitration of proteins” value in assay [5] is listed as “nitration of the proteins is inhibited in tyrosine concentration dependent manner”.

The values are drawn from patent publication US12605350B2, “Composition for preventing, ameliorating, or treating disease caused by nitration of tyrosine in proteins comprising tyrosine as effective component” (INDUSTRY-ACADEMIC COOPERATION FOUNDATION GYEONGSANG …, priority 2020, dated 2026).
